Experimental data taken from ChEMBL document CHEMBL3853353, “Identification and optimization of a new series of anti-tubercular quinazolinones” (Bioorg Med Chem Lett, 2016).
≈ marks a conversion by molar mass, not a printed value. Calls of active or inactive are those of the source. The rule behind the calls is not given here.

Columns and labels:
[1] = Aqueous equilibrium solubility of compound in pH 1 solution at 20 degC; conditions: aqueous pH 1 solution
[2] = tested on: Mycobacterium tuberculosis; test: Bacteriostatic activity against Mycobacterium tuberculosis H37Rv incubated for 5 days by Bactiter-Glo assay; type: functional
Cytochrome P450 3A4 [3] = molecular target: T1, Cytochrome P450 3A4 (Homo sapiens, UniProt P08684); test: Inhibition of CYP3A4 in human liver microsomes assessed as 1'-hydroxymidazolam metabolite formation using midazolam as substrate incubated for 10 mins by HPLC-MS method
T1 sequence (P08684 whole entry): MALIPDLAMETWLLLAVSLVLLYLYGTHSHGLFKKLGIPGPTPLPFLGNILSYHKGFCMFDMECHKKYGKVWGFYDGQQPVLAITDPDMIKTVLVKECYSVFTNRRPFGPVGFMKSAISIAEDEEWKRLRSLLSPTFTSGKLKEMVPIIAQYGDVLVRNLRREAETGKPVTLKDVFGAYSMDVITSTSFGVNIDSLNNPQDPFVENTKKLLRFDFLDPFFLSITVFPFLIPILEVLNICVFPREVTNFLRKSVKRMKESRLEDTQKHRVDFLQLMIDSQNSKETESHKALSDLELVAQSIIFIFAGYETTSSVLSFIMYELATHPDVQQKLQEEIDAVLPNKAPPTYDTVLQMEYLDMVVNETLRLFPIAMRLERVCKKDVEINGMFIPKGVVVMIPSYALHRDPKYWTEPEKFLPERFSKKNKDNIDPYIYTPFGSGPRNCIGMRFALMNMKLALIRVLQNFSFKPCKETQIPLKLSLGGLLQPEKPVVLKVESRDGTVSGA

[4] = Cytotoxicity against human HepG2 cells assessed as reduction in cell viability after 40 hrs by Celltiter-Glo assay; conditions: HepG2 cells
[5] = tested on: Mycobacterium tuberculosis; test: Antimycobacterial activity against GFP-tagged Mycobacterium tuberculosis H37Rv infected in mouse RAW264.7 cells incubated for 4 days by Mask blue/Hoechst/FITC staining based fluorescence microscopic analysis; type: functional; conditions: 96 h
hERG (KCNH2) = hERG (KCNH2) (Homo sapiens, UniProt Q12809); test: Inhibition of human ERG at 10 uM relative to control
Chain of hERG (KCNH2) (Q12809 whole entry): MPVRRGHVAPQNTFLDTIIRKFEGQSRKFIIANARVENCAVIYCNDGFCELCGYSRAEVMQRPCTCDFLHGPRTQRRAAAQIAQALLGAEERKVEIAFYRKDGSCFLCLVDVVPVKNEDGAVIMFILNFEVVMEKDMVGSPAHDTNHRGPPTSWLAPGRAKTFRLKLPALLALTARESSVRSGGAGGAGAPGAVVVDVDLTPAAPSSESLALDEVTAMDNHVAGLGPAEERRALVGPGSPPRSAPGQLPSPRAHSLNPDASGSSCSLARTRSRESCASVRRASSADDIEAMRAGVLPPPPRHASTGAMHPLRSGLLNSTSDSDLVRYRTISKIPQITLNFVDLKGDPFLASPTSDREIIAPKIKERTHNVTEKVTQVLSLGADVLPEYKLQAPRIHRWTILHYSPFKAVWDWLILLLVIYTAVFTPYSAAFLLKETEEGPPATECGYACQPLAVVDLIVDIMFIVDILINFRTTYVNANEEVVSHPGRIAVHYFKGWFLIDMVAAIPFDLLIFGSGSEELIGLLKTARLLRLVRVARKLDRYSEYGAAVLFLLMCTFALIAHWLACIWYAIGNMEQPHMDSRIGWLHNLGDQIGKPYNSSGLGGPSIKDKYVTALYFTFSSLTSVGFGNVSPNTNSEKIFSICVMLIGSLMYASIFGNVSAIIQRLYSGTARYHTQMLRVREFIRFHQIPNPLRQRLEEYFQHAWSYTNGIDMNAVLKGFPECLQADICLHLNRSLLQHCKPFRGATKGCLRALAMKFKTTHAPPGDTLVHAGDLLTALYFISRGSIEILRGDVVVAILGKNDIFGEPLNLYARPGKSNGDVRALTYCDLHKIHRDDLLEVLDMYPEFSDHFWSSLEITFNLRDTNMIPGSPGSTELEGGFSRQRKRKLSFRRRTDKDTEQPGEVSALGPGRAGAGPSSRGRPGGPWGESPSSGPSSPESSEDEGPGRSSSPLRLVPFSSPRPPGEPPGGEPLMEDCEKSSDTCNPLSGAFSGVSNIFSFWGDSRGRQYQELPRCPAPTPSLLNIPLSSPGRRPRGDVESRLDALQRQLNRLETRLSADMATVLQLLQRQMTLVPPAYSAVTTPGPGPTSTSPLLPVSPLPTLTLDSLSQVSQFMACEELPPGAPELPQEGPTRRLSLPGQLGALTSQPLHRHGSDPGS

[6] = Drug metabolism in human liver microsomes assessed as CYP450/FMO-mediated demethylation of methoxy group/hydroxylation of distal aryl ring at 5 uM after 20 mins in presence of NADPH; type: ADME
[7] = tested on: Mycobacterium tuberculosis; test: Ratio of MIC80 for Mycobacterium tuberculosis H37Rv in presence of 25% human serum to MIC80 for Mycobacterium tuberculosis H37Rv; type: functional
[8] = tested on: Mycobacterium tuberculosis; test: Antimycobacterial activity against Mycobacterium tuberculosis H37Rv incubated for 5 days in presence of 25% human serum by Bactiter-Glo assay; type: functional; conditions: 120 h
[9] = tested on: Mycobacterium tuberculosis; test: Antimycobacterial activity against Mycobacterium tuberculosis H37Rv incubated for 5 days in presence of 25% mouse serum by Bactiter-Glo assay; type: functional; conditions: 120 h
[10] = tested on: Mycobacterium tuberculosis; test: Growth inhibition of Mycobacterium tuberculosis H37Rv at 10 uM incubated for 5 days by Bactiter-Glo assay relative to control; type: functional; conditions: 120 h, read-out: GI
Salmonella typhimurium = test: Genotoxicity in Salmonella typhimurium by Ames test; type: toxicity, organism-based; conditions: salmonella enterica subsp. enterica serovar typhimurium
[11] = Permeability in human Caco2 cells; conditions: caco-2
[12] = Lipophilicity, log P of compound; conditions: octanol/water
[13] = Drug metabolism in human hepatocytes assessed as demethylation of methoxy group/hydroxylation of distal aryl ring; type: ADME, cell-based, Hepatocyte
[14] = Aqueous equilibrium solubility of compound in pH 7.4 solution at 20 degC; conditions: aqueous pH 7.4 solution
Cytochrome P450 3A4 [15] = molecular target: T1, Cytochrome P450 3A4; test: Inhibition of CYP3A4 in human liver microsomes assessed as 6-beta-hydroxytestosterone metabolite formation using testosterone as substrate incubated for 30 mins by HPLC-MS method
[16] = tested on: Mycobacterium tuberculosis; test: Antimycobacterial activity against Mycobacterium tuberculosis H37Rv incubated for 5 days by Bactiter-Glo assay; type: functional; conditions: 120 h
[17] = Selectivity index, ratio of IC50 for human HepG2 cells to MIC80 for Mycobacterium tuberculosis H37Rv; type: toxicity, cell-based; conditions: read-out: Selectivity Index
[18] = tested on: Mycobacterium tuberculosis; test: Antimycobacterial activity against Mycobacterium tuberculosis H37Rv infected in po dosed Balb/c mouse assessed as bacterial burden in lungs administered daily through gavage starting on day 2 post infection for 4 days per week for 2 weeks each 4 days dosing followed by 2 days compound washout measured on day 12 post infection (reference value: 8 log10CFU); type: functional, Lung
[19] = Time at which plasma concentration stays above invitro MIC80 in presence of mouse serum in Balb/c mouse infected with Mycobacterium tuberculosis H37Rv at 100 mg/kg, po administered through gavage as lipidic/water formulation; type: ADME, organism-based; conditions: in vivo
[20] = tested on: Mycobacterium tuberculosis; test: Antimycobacterial activity against Mycobacterium tuberculosis H37Rv infected in Balb/c mouse assessed as bacterial burden in lungs at 100 mg/kg, po administered daily through gavage starting on day 2 post infection for 4 days per week for 2 weeks as vitamin E/water formulation measured on day 12 post infection (reference value: 7.6 log10CFU); type: functional, Lung
[21] = Bioavailability in Swiss mouse at 3 mg/kg, iv administered as single bolus dose in NMP/Solutol HS15/PBS solution after 24 hrs; type: ADME, organism-based; conditions: in vivo
[22] = tested on: Mycobacterium tuberculosis; test: Antimycobacterial activity against Mycobacterium tuberculosis H37Rv infected in po dosed Balb/c mouse assessed as log10 reduction in CFU in lungs administered daily through gavage starting on day 2 post infection for 4 days per week for 2 weeks as lipidic/water formulation measured on day 12 post infection; type: functional; conditions: read-out: MED
[23] = tested on: Mycobacterium tuberculosis; test: Antimycobacterial activity against Mycobacterium tuberculosis H37Rv infected in Balb/c mouse assessed as bacterial burden in lungs at 600 mg/kg, po administered daily through gavage starting on day 2 post infection for 4 days per week for 2 weeks as lipidic/water formulation measured on day 12 post infection (reference value: 7.2 log10CFU); type: functional, Lung
[24] = AUC in Balb/c mouse plasma infected with Mycobacterium tuberculosis H37Rv at 10 to 100 mg/kg, po administered through gavage as lipidic/water formulation; type: ADME, organism-based
[25] = tested on: Mycobacterium tuberculosis; test: Antimycobacterial activity against Mycobacterium tuberculosis H37Rv infected in Balb/c mouse assessed as bacterial burden in lungs at 300 mg/kg, po administered daily through gavage starting on day 2 post infection for 4 days per week for 2 weeks as vitamin E/water formulation measured on day 12 post infection (reference value: 7.6 log10CFU); type: functional, Lung
[26] = Protein binding in Swiss mouse plasma at 1 to 10 uM after 4 hrs by LC-MS/MS analysis; type: ADME, cell-free; conditions: read-out: PPB (converted)
[27] = tested on: Mycobacterium tuberculosis; test: Antimycobacterial activity against Mycobacterium tuberculosis H37Rv infected in Balb/c mouse assessed as bacterial burden in lungs at 30 mg/kg, po administered daily through gavage starting on day 2 post infection for 4 days per week for 2 weeks as vitamin E/water formulation measured on day 12 post infection (reference value: 7.6 log10CFU); type: functional, Lung
[28] = Time at which lung concentration stays above invitro MIC80 in presence of mouse serum in Balb/c mouse infected with Mycobacterium tuberculosis H37Rv at 100 mg/kg, po administered through gavage as lipidic/water formulation; type: ADME, organism-based; conditions: in vivo
[29] = Protein binding in human plasma at 1 to 10 uM after 4 hrs by LC-MS/MS analysis; type: ADME, cell-free; conditions: read-out: PPB (converted)
[30] = tested on: Mycobacterium tuberculosis; test: Antimycobacterial activity against Mycobacterium tuberculosis H37Rv infected in Balb/c mouse assessed as bacterial burden in lungs at 10 mg/kg, po administered daily through gavage for 2 weeks starting on day 2 post infection measured on day 12 post infection (reference value: 6.4 log10CFU); type: functional, Lung
[31] = tested on: Mycobacterium tuberculosis; test: Antimycobacterial activity against Mycobacterium tuberculosis H37Rv infected in Balb/c mouse assessed as bacterial burden in lungs at 10 mg/kg, po administered daily through gavage starting on day 2 post infection for 4 days per week for 2 weeks measured on day 12 post infection (reference value: 7.8 log10CFU); type: functional, Lung
[32] = AUC in Balb/c mouse plasma infected with Mycobacterium tuberculosis H37Rv at 300 mg/kg, po administered through gavage as 5% soluplus/acetate buffer formulation; type: ADME, organism-based
[33] = tested on: Mycobacterium tuberculosis; test: Antimycobacterial activity against Mycobacterium tuberculosis H37Rv infected in Balb/c mouse assessed as bacterial burden in lungs at 100 mg/kg, po administered daily through gavage for 2 weeks starting on day 2 post infection as 5% soluplus/acetate buffer formulation measured on day 12 post infection (reference value: 6.4 log10CFU); type: functional, Lung
[34] = Time at which plasma concentration stays above invitro MIC80 in presence of mouse serum Balb/c mouse infected with Mycobacterium tuberculosis H37Rv at 300 mg/kg, po administered through gavage as 5% soluplus/acetate buffer formulation; type: ADME, organism-based; conditions: in vivo
[35] = tested on: Mycobacterium tuberculosis; test: Antimycobacterial activity against Mycobacterium tuberculosis H37Rv infected in Balb/c mouse assessed as bacterial burden in lungs at 10 mg/kg, po administered daily through gavage for 2 weeks starting on day 2 post infection as 5% soluplus/acetate buffer formulation measured on day 12 post infection (reference value: 6.4 log10CFU); type: functional, Lung
[36] = tested on: Mycobacterium tuberculosis; test: Antimycobacterial activity against Mycobacterium tuberculosis H37Rv infected in Balb/c mouse assessed as bacterial burden in lungs at 300 mg/kg, po administered daily through gavage for 2 weeks starting on day 2 post infection as 5% soluplus/acetate buffer formulation measured on day 12 post infection (reference value: 6.4 log10CFU); type: functional, Lung
[37] = tested on: Mycobacterium tuberculosis; test: Antimycobacterial activity against Mycobacterium tuberculosis H37Rv infected in Balb/c mouse assessed as bacterial burden in lungs at 30 mg/kg, po administered daily through gavage for 2 weeks starting on day 2 post infection as 5% soluplus/acetate buffer formulation measured on day 12 post infection (reference value: 6.4 log10CFU); type: functional, Lung
[38] = AUC in Balb/c mouse lungs infected with Mycobacterium tuberculosis H37Rv at 300 mg/kg, po administered through gavage as 5% soluplus/acetate buffer formulation; type: ADME, organism-based; conditions: lung

Structure (SMILES) | solubility thermodynamic [1] | IC50 (Cytochrome P450 3A4 [3]) | IC50 at 40 h [4] | MIC80 [5] | Ratio [7] | MIC80 [8] | permeability [11] | logP [12] | solubility thermodynamic [14] | IC50 (Cytochrome P450 3A4 [15]) | MIC80 [16] | other results
COc1ccc(CCNc2nc3cc(Cl)ccc3c(=O)n2C)cc1 | 11 µg/mL (≈ 32 µM) | < 1 µM | 13.4 µM | 0.163 µM (≈ 0.056 µg/mL) | >10 | 0.43 µM | Permeable | 4.08 | ≤ 1 µg/mL | 4.3 µM | 38 nM (≈ 0.0131 µg/mL) | Activity [2]: Active; inhibition at 10 µM (hERG (KCNH2)): 35%; Drug metabolism [6]: Metabolite_Detected; MIC80 [9]: 0.013 µM; inhibition of growth at 10 µM [10]: > 50%; Activity (Salmonella typhimurium): Non-Toxic; Drug metabolism [13]: Metabolite_Detected; selectivity ratio [17]: > 10
CC[C@@H](CO)NCCN[C@@H](CC)CO [ETHAMBUTOL] | – | – | – | – | – | – | – | – | – | – | – | Activity [18]: 7 log10CFU
Cn1c(NCCc2ccc(Oc3ccc(Cl)cc3)cc2)nc2cc(Cl)ccc2c1=O | < 1 µg/mL | 14 µM | 10.9 µM | 0.133 µM (≈ 0.0586 µg/mL) | 8 | 1.9 µM | Permeable | 5.66 | < 1 µg/mL | 29 µM | 36 nM (≈ 0.0159 µg/mL) | Time [19]: > 96 h; Activity [20]: 7.1 log10CFU; bioavailability [21]: 90%; MIC80 [9]: 0.42 µM; minimal effective dose [22]: 600 mg/kg; Activity [23]: 6.3 log10CFU; AUC [24]: 21000 ng·h/mL; Activity [25]: 7 log10CFU; fraction unbound at 4 h [26]: 0.001; Activity [27]: 7.5 log10CFU; Time [28]: > 96 h; fraction unbound at 4 h [29]: 0.001
Cn1c(NCCc2ccc(-c3ncc(F)cn3)cc2)nc2cc(Cl)ccc2c1=O | 11 µg/mL (≈ 26.8 µM) | > 30 µM | > 30 µM | 0.013 µM (≈ 0.00533 µg/mL) | 30 | 0.39 µM | Permeable | 4.46 | < 1 µg/mL | 9.9 µM | 3 nM (≈ 0.00123 µg/mL) | –
CO[C@H]1/C=C/O[C@@]2(C)Oc3c(C)c(O)c4c(O)c(c(/C=N/N5CCN(C)CC5)c(O)c4c3C2=O)NC(=O)/C(C)=C\C=C\[C@H](C)[C@H](O)[C@@H](C)[C@@H](O)[C@@H](C)[C@H](OC(C)=O)[C@@H]1C [RIFAMPIN] | – | – | – | – | – | – | – | – | – | – | – | Activity [30]: 3.9 log10CFU; Activity [31]: 5.2
Cn1c(NCCc2ccc(-c3ccccc3)cc2)nc2cc(Cl)ccc2c1=O | 5 µg/mL (≈ 12.8 µM) | > 30 µM | 6.5 µM | 0.164 µM (≈ 0.0639 µg/mL) | 8 | 0.87 µM | Permeable | 5.27 | < 1 µg/mL | > 30 µM | 8 nM (≈ 0.00312 µg/mL) | –
Cn1c(NCCc2ccc(-c3ncc(Cl)cn3)cc2)nc2cc(Cl)ccc2c1=O | 10 µg/mL (≈ 23.5 µM) | – | > 30 µM | 0.947 µM (≈ 0.404 µg/mL) | – | 0.11 µM | Permeable | 5.02 | < 1 µg/mL | – | 6 nM (≈ 0.00256 µg/mL) | –
Cn1c(NCCc2ccc(-c3ccc(Cl)cn3)cc2)nc2cc(Cl)ccc2c1=O | 21 µg/mL (≈ 49.4 µM) | > 30 µM | > 30 µM | 0.063 µM (≈ 0.0268 µg/mL) | 30 | 0.25 µM | Permeable | 5.04 | < 1 µg/mL | 8.4 µM | 2 nM (≈ 0.000851 µg/mL) | –
Cn1c(NCCc2ccc(-c3ccc(F)cc3)cc2)nc2cc(Cl)ccc2c1=O.O=S(=O)(O)O | – | – | – | – | – | – | – | – | – | – | – | AUC [32]: 140 µg·h/mL; Activity [33]: 5.5 log10CFU; Time [34]: > 24 h; Activity [35]: 6.6 log10CFU; Activity [36]: 4.9 log10CFU; Activity [37]: 5.8 log10CFU; AUC [38]: 980 µg·h/mL
